The text below walks through data of patent US7928104B2, “7-phenylalkyl substituted 2-quinolinones and 2-quinoxalinones as poly(ADP-ribose) polymerase inhibitors” (priority 2003, dated 2011).

Series [1] deals with T1, PARP-1 enzyme (Homo sapiens, UniProt P09874).
T1 construct: made in house
The series can be described thus: In vitro Scintillation Proximity Assay (SPA) for PARP-1 inhibitory activity. In kind it is biochemical. Particulars: nicked DNA activated PARP-1, [3H]-NAD+, biotinylated histones; read-out: In vitro SPA pIC50 (converted). As for the experimental part: Compounds of the present invention were tested in an in vitro assay based on SPA technology (proprietary to Amersham Pharmacia Biotech).
In principle, the assay relies upon the well established SPA technology for the detection of poly(ADP-ribosyl)ation of biotinylated target proteins, i.e histones. This ribosylation is induced using nicked DNA activated PARP-1 enzyme and [^3H]-nicotinamide adenine dinucleotide ([^3H]-NAD^+) as ADP-ribosyl donor.
As inducer of PARP-1 enzyme activity, nicked DNA was prepared. For this, 25 mg of DNA (supplier: Sigma) was dissolved in 25 ml DNAse buffer (10 mM Tris-HCl, pH 7.4; 0.5 mg/ml Bovine Serum Albumine (BSA); 5 mM MgCl2.6H2O and 1 mM KCl) to which 50 μl DNAse solution (1 mg/ml in 0.15 M NaCl) was added. After an incubation of 90 min. at 37° C., the reaction was terminated by adding 1.45 g NaCl, followed by a further incubation at 58° C. for 15 min. The reaction mixture was cooled on ice and dialysed at 4° C. for respectively 1.5 and 2 hours against 1.5 l of 0.2 M KCl, and twice against 1.5 l of 0.01 M KCl for 1.5 and 2 h respectively. The mixture was aliquoted and stored at −20° C. Histones (1 mg/ml, type II-A, supplier: Sigma) were biotinylated using the biotinylation kit of Amersham and stored aliquoted at −20° C. A stock solution of 100 mg/ml SPA poly(vinyl toluene) (PVT) beads (supplier: Amersham) was made in PBS. A stock solution of [^3H]-NAD^+ was made by adding 120 μl of [^3H]-NAD^+ (0.1 mCi/ml, supplier: NEN) to 6 ml incubation buffer (50 mM Tris/HCl, pH 8; 0.2 mM DTT; 4 mM MgCl2). A solution of 4 mM NAD^+ (supplier: Roche) was made in incubation buffer (from a 100 mM stock solution in water stored at −20° C.). The PARP-1 enzyme was produced using art known techniques, i.e. cloning and expression of the protein starting from human liver cDNA. Information concerning the used protein sequence of the PARP-1 enzyme including literature references can be found in the Swiss-Prot database under primary accession number P09874. Biotinylated histones and PVT-SPA beads were mixed and pre-incubated for 30 min. at room temperature. PARP-1 enzyme (concentration was lot dependent) was mixed with the nicked DNA and the mixture was pre-incubated for 30 min. at 4° C. Equal parts of this histones/PVT-SPA beads solution and PARP-1 enzyme/DNA solution were mixed and 75 μl of this mixture together with 1 μl of compound in DMSO and 25 μl of [^3H]-NAD^+ was added per well into a 96-well microtiterplate. The final concentrations in the incubation mixture were 2 μg/ml for the biotinylated histones, 2 mg/ml for the PVT-SPA beads, 2 μg/ml for the nicked DNA and between 5-10 μg/ml for the PARP-1 enzyme. After incubation of the mixture for 15 min. at room temperature, the reaction was terminated by adding 100 μl of 4 mM NAD^+ in incubation buffer (final concentration 2 mM) and plates were mixed. The beads were allowed to sediment for at least 15 min. and plates transferred to a TopCountNXT™ (Packard) for scintillation counting, values were expressed as counts per minute (cpm). For each experiment, controls (containing PARP-1 enzyme and DMSO without compound), a blank incubation (containing DMSO but no PARP-1 enzyme or compound) and samples (containing PARP-1 enzyme and compound dissolved in DMSO) were run in parallel. All compounds tested were dissolved and eventually further diluted in DMSO. […] In each test, the blank value was subtracted from both the control and the sample values. The control sample represented maximal PARP-1 enzyme activity. For each sample, the amount of cpm was expressed as a percentage of the mean cpm value of the controls. When appropriate, IC50-values (concentration of the drug, needed to reduce the PARP-1 enzyme activity to 50% of the control) were computed using linear interpolation between the experimental points just above and below the 50% level. Herein the effects of test compounds are expressed as pIC50 (the negative log value of the IC50-value). […]
A general note: SPA uses beads or plates that emit light when radiolabelled molecules are held near them.

Series [2] deals with colitis. The settings on record: rats, colitis induced by intraluminal trinitrobenzene sulfonic acid in 50% ethanol; cited from earlier work.
Series [3] deals with ischemia and reperfusion of the heart. The settings on record: rabbits, cited from earlier work.
Series [4] addresses T1, PARP-1 enzyme. The series can be described thus: In vitro filtration assay for PARP-1 inhibitory activity. In kind it is biochemical. Particulars: nicked DNA activated PARP-1, [32P]-NAD+, histones; read-out: In vitro filtration assay pIC50 (converted). As for the experimental part:
Compounds of the present invention were tested in an in vitro filtration assay assessing PARP-1 activity (triggered in the presence of nicked DNA) by means of its histone poly(ADP-ribosyl)ation activity using [^32P]-NAD as ADP-ribosyl donor. The radioactive ribosylated histones were precipitated by trichloroacetic acid (TCA) in 96-well filterplates and the incorporated [^32P] measured using a scintillation counter
A mixture of histones (stock solution: 5 mg/ml in H2O), NAD^+ (stock solution: 100 mM in H2O), and [^32P]-NAD^+ in incubation buffer (50 mM Tris/HCl, pH 8; 0.2 mM DTT; 4 mM MgCl2) was made. A mixture of the PARP-1 enzyme (5-10 μg/ml) and nicked DNA was also made. The nicked DNA was prepared as described in the in vitro SPA for PARP-1 inhibitory activity. Seventy-five μl of the PARP-1 enzyme/DNA mixture together with 1 μl of compound in DMSO and 25 μl of histones-NAD^+/[^32P]-NAD^+ mixture was added per well of a 96-well filterplate (0.45 μm, supplier Millipore). The final concentrations in the incubation mixture were 2 μg/ml for the histones, 0.1 mM for the NAD^+, […] (0.5 μC) for the [^32P]-NAD^+ and 2 μg/ml for the nicked DNA. Plates were incubated for 15 min. at room temperature and the reaction was terminated by the addition of 10 μl ice cold 100% TCA followed by the addition of 10 μl ice-cold BSA solution (1% in H2O). The protein fraction was allowed to precipitate for 10 min. at 4° C. and plates were vacuum filtered. The plates were subsequently washed with, for each well, 1 ml of 10% ice cold TCA, 1 ml of 5% ice cold TCA and 1 ml of 5% TCA at room temperature. Finally 100 μl of scintillation solution (Microscint 40, Packard) was added to each well and the plates were transferred to a TopCountNXT™ (supplier: Packard) for scintillation counting and values were expressed as counts per minute (cpm). For each experiment, controls (containing PARP-1 enzyme and DMSO without compound), a blank incubation (containing DMSO but no PARP-1 enzyme or compound) and samples (containing PARP-1 enzyme and compound dissolved in DMSO) were run in parallel. All compounds tested were dissolved and eventually further diluted in DMSO. In first instance, compounds were tested at a concentration of 10^−5M. […] In each test, the blank value was subtracted from both the control and the sample values. The control sample represented maximal PARP-1 enzyme activity. For each sample, the amount of cpm was expressed as a percentage of the mean cpm value of the controls. When appropriate, IC50-values (concentration of the drug, needed to reduce the PARP-1 enzyme activity to 50% of the control) were computed using linear interpolation between the experimental points just above and below the 50% level. Herein the effects of test compounds are expressed as pIC50 (the negative log value of the IC50−-value). As a reference compound, 4-amino-1,8-naphthalimide was included to validate the filtration assay.

Where a name gives a salt, the structure may show the parent alone.

T1 sequence (P09874 whole entry): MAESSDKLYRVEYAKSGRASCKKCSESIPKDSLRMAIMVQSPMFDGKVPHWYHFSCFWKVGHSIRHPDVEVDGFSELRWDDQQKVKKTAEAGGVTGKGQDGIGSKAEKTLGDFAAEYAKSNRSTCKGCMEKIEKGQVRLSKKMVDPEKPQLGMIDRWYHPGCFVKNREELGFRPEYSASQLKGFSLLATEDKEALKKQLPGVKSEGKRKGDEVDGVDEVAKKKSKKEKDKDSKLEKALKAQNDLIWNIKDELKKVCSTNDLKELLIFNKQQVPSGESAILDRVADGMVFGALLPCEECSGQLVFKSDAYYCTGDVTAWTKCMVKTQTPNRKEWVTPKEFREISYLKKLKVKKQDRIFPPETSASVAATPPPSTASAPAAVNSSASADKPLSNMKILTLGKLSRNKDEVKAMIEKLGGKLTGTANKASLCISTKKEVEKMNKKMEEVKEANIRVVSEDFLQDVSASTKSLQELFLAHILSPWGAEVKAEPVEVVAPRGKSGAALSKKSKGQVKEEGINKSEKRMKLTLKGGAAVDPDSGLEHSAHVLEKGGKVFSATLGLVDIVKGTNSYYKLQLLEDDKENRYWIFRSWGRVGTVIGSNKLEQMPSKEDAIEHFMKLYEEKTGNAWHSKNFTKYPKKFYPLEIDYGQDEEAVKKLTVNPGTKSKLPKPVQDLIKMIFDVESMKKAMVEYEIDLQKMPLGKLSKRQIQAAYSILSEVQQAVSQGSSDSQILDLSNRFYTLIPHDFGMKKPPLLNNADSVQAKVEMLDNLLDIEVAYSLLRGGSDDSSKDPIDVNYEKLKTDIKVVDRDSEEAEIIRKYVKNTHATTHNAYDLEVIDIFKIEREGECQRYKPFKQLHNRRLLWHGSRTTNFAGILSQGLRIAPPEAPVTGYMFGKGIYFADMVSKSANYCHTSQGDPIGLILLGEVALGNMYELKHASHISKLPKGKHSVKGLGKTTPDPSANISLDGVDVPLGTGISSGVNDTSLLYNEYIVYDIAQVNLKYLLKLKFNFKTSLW

Take `CCc1nc2ccc(CC(O)c3ccccc3)cc2[nH]c1=O` (stereo not shown) [Compound 11]: the IC50 in series [1] was 914 nM.

`CCc1nc2ccc(C(c3ccccc3)N3CCC(NCCOC)CC3)cc2[nH]c1=O` (stereo not shown) (as salt: salt) [Compound 2]: the melting point (as a rule, the temperature, or range, at which the solid turns liquid) came out at 98 °C.

As for `NC(=O)c1cccc(N)c1` [3-amino-benzamide], the “effect on inflammatory response, distal colon” value in series [2] was “reduced the inflammatory response”. Further, the “reduction in infarct size in the heart” value in series [3] (single injection 10 mg/kg, one minute before occlusion or one minute before reperfusion) was 32-42%.

With `CCc1nc2ccc(C(NCCCN(C)Cc3ccccc3)c3ccccc3)cc2[nH]c1=O` (stereo not shown) [Compound 9], in series [1], the IC50 is 312 nM.

For the compound `CCc1nc2ccc(CC(O)c3ccc(Cl)cc3)cc2[nH]c1=O` (stereo not shown) [Compound 10], the IC50 in series [1] was 552 nM.

`Cc1nc2ccc(C(c3ccc(C(C)C)cc3)n3ccnc3)cc2[nH]c1=O` (stereo not shown) [Compound 8]: the IC50 in series [4] is 1410 nM; in series [1], 411 nM.

For `CCc1nc2ccc(C(c3ccc(F)cc3)n3ccnc3)cc2[nH]c1=O` (stereo not shown) [Compound 18], the IC50 in series [4] is 4130 nM; in series [1], 1000 nM.

As for `CCc1nc2ccc(C(c3ccc(Cl)cc3)N3CCCCC3)cc2[nH]c1=O` (stereo not shown) [Compound 5], the IC50 was 693 nM in series [4] and 236 nM in series [1].

For `Cc1nc2ccc(C(c3ccc(Cl)cc3)n3ccnc3)cc2[nH]c1=O` (stereo not shown) [Compound 20, 7-[(4-chlorophenyl)-1H-imidazol-1-ylmethyl]-3-methyl-2(1H)-quinoxalinone], the IC50 in series [4] was greater than 10000 nM; in series [1] it was 4110 nM.

Turning to `CCc1nc2ccc(C(c3ccccc3)n3ccnc3)cc2[nH]c1=O` (stereo not shown) [Compound 19], the IC50 in series [4] was 615 nM; in series [1], 231 nM.

`CCc1nc2ccc(C(c3ccccc3)c3cccnc3)cc2[nH]c1=O` (stereo not shown) [Compound 16]: the IC50 in series [4] is 4530 nM; in series [1], 577 nM.

With `CCc1nc2ccc(C(c3cccc(F)c3)n3ccnc3)cc2[nH]c1=O` (stereo not shown) [Compound 12], the results for the IC50 in series [4] and in series [1] were 3600 nM and 728 nM, respectively.

In the case of `CCOC(=O)C1CCN(C(c2ccc(Cl)cc2)c2ccc3nc(CC)c(=O)[nH]c3c2)CC1` (stereo not shown) [Compound 6], the IC50 in series [1] was 818 nM.

In the case of `Cc1cc2ccc(C(CCN(C)C)c3ccccc3)cc2[nH]c1=O` (stereo not shown) [Compound 3], the IC50 is 9890 nM in series [4] and 899 nM in series [1].

For the compound `CCc1nc2ccc(CC(c3ccc(Cl)cc3)n3ccnc3)cc2[nH]c1=O` (stereo not shown) [Compound 15], the values for the IC50 in series [4] and in series [1] were 6380 nM and 329 nM, respectively.

On to `CCc1nc2ccc(C(c3ccccc3)n3cccn3)cc2[nH]c1=O` (stereo not shown) [Compound 14], for which the IC50 was 2670 nM in series [4] and 1600 nM in series [1].

In the case of `Oc1cccc2c(O)nccc12` [1,5-dihydroxyisoquinoline], the “reduction in infarct size” value in series [3] (single injection 1 mg/kg) was 38-48%.

`CCc1nc2ccc(C(c3ccccc3)n3cncn3)cc2[nH]c1=O` (stereo not shown) [Compound 17]: the IC50 in series [1] was 334 nM.

For the compound `CCc1nc2ccc(CC(c3ccc(Cl)cc3)N3CCCC3)cc2[nH]c1=O` (stereo not shown) [Compound 7], in series [1], the IC50 is 586 nM.

The compound `CCc1nc2ccc(CC(c3ccccc3)n3ccnc3)cc2[nH]c1=O` (stereo not shown) [Compound 1] had a melting point of 166 °C. In addition, the IC50 in series [1] is 206 nM.

`CCc1nc2ccc(C(O)c3ccccc3)cc2[nH]c1=O` (stereo not shown) [Compound 4] yielded a melting point of 202 °C. Moreover, the IC50 in series [1] was 409 nM.

Take `CCc1nc2ccc(C(c3ccccc3F)n3ccnc3)cc2[nH]c1=O` (stereo not shown) [Compound 13]: the values for the IC50 in series [4] and in series [1] were 4940 nM and 718 nM, respectively.

As for `CCc1nc2ccc(C(c3ccccc3)N3CCC(NCCOC)CC3)cc2[nH]c1=O` (stereo not shown) [Compound 2], the IC50 in series [1] was 7.5 nM.
